Test results published in US20230357241A1, “1H-PYRROLO[2,3-C]PYRIDINE COMPOUNDS AND APPLICATION THEREOF” (MEDSHINE DISCOVERY INC., priority 2020, published 2023).
Counter-ions that a name gives are not always drawn. Each block holds one compound with its values, some of them ahead of it.

How the values were obtained:
[1] = molecular target: CSF-1R (Homo sapiens (Human), UniProt P07333); assay: In vitro enzymatic inhibitory activity, CSF-1R kinase (33P-ATP filter-binding); type: biochemical; conditions: CSF-1R 2.5 nM, 2 h room temperature
Sequence of CSF-1R (P07333 20-972): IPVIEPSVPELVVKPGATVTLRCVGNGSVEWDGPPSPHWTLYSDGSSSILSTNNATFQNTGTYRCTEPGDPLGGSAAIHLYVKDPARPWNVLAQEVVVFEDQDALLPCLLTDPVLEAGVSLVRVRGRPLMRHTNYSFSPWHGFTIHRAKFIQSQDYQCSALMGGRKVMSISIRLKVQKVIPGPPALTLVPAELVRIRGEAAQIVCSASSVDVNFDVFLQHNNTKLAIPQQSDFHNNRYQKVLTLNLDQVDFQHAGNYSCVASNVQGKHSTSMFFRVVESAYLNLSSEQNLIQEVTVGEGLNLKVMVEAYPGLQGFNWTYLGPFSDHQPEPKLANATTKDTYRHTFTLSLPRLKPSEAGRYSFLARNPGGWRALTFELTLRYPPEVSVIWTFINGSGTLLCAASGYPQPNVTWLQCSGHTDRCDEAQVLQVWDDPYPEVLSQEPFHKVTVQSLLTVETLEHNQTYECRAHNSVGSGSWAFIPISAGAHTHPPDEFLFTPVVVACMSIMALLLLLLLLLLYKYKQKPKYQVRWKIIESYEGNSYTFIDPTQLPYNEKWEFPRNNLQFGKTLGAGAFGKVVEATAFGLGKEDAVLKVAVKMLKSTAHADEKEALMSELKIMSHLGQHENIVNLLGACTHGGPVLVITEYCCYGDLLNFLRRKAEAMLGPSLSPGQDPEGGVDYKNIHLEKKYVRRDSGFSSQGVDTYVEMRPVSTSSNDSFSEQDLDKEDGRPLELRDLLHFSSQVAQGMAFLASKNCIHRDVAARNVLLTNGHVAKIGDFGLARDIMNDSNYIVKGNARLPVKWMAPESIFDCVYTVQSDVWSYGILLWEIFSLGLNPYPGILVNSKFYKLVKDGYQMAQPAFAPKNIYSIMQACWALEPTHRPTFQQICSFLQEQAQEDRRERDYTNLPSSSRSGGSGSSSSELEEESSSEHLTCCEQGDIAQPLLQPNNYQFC
Method: Basic reaction buffer: 20 mM hydroxyethylpiperazine ethane sulfonic acid (pH 7.5), 10 mM magnesium chloride, 1 mM EGTA, 0.02% Brij35, 0.02 mg/mL bovine serum albumin, 0.1 mM
Na3VO4, 2 mM DTT, 1% DMSO
Necessary cofactors were separately added to the CSF-1R kinase reaction.
The test compounds were prepared into solutions of specified concentrations in 100% DMSO, and the solutions were serially diluted in DMSO using the Integra Viaflo Assist.
1. A fresh medium preparation reaction buffer was prepared;
2. All necessary cofactors were added to the reaction buffer described above;
3. The kinase was added into the medium solution and the mixture was shaked gently;
4. Solutions of the compounds in DMSO were added to the kinase reaction mixture using an acoustic technique (Echo550; in nanoliter range), and the system was incubated at room temperature for 20 min;
5. ^33P-ATP (specific activity: 10 μCi/μL) was added to the reaction mixture to initiate the reaction;
6. The mixture was incubated for 2 h at room temperature;
7. The kinase activity was detected by a filter-binding method;
8. The kinase activity IC50 values and the curves were obtained by comparison with the other kinases and the vehicle (DMSO) group using Prism (GraphPad software).

[2] = molecular target: CYP2D6 (Homo sapiens (Human), UniProt P10635); assay: Cytochrome enzyme inhibition study, CYP2D6; type: in vitro ADME; conditions: human liver microsomes, mixed probe substrate; read-out: CYP inhibition (IC50, μM) 2D6
Sequence of CYP2D6 (P10635 whole entry): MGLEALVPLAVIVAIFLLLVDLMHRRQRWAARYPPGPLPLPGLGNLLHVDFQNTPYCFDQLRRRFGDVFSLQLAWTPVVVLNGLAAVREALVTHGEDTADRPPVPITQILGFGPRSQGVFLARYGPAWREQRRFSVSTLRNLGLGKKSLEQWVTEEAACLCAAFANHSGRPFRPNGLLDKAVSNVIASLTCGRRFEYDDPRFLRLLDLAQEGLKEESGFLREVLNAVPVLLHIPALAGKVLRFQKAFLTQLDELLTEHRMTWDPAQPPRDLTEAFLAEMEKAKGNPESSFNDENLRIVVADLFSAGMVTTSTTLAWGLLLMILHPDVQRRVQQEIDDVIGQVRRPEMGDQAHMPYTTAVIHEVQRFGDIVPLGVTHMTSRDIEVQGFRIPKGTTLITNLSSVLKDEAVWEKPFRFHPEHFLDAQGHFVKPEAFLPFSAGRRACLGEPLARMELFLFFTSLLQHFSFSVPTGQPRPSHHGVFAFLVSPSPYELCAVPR
Method: (§1) A mixed probe substrate of CYP isoenzymes were used to evaluate the inhibitory effect of test compounds on human liver microsomal cytochrome P450 isoenzymes (CYP1A2, CYP2C9, CYP2C19, CYP2D6 and CYP3A4). The test compounds were prepared into 10 mM stock solutions with DMSO. A 178 μL solution of human liver microsome and substrate mixture was added to the non-inhibitor control (NIC) and test compound wells of the reaction plate and the reaction was then placed on ice. 2 μL of blank solvent and test compound working solution were taken from the dilution plate, and added to the reaction plate (at final concentrations of 0.05-50 μM). The reaction plate was prewarmed in a 37±0.2° C. water bath for 10 min. 20 μL of the cofactor solution was taken by a liquid treatment workstation and added into the reaction plate to initiate the reaction. After 10 min, 400 μL of terminating solution was added to the reaction plate to terminate the reaction, and the reaction plate was incubated on ice for 5 min. […] The peak areas of the substrate and the product were detected by liquid chromatography-mass spectrometer (LC/MS/MS). […] The peak area ratio of the metabolite generated by the probe substrate to the internal standard was determined by liquid chromatography-mass spectrometer (LC-MS/MS). […] IC50 values were calculated by a three-parameter or four-parameter sigmoidal logarithmic equation. […]

[3] = Pharmacokinetic study in rats; type: in vivo; conditions: male, SD, plasma, rat
Excerpt: (§2) This study was intended to explore the pharmacokinetics of the test compound in the plasma of male C57BL/6J mice and SD rats after intravenous and oral administrations.
(§3) The animals were randomized into two groups of 3 male animals. The compounds were formulated as designated (vehicle: 0.5% MC), i.e., clear solutions for intravenous injection and clear or homogeneous suspensions for oral formulations.
(§4) Animal whole blood samples were collected by jugular vein puncture or from saphenous vein at 5 min, 15 min and 30 min and 1 h, 2 h, 4 h, 6 h and 8 h post-dose. The whole blood samples were added to centrifuge tubes containing anticoagulant and centrifuged at 4° C., 3000 g for 15 min. The plasma supernatant was taken and quickly frozen on dry ice and stored in a freezer at −70±10° C. before LC-MS/MS analysis.
(§5) Plasma drug concentration data for compounds were processed in a non-compartmental model using WinNonlin™ Version 6.3.0 (Pharsight, Mountain View, CA) pharmacokinetic software. Peak concentration (Cmax) and time to peak (Tmax) and time of the last quantifiable concentration were directly obtained from the plasma concentration-time curve.
(§6) The following pharmacokinetic parameters were calculated using the log-linear trapezoidal method: plasma clearance (CL), volume of distribution (Vd), elimination phase half-life (T1/2), mean retention time of the compound from point 0 to the last time point (MRT0-last), mean retention time of the compound from point 0 to infinite (MRT0-inf), area under the time-plasma concentration curve from point 0 to the last time point (AUC0-last), area under the time-plasma concentration curve from point 0 to infinite (AUC0-inf) and bioavailability (F).

[4] = molecular target: CYP2C9 (Homo sapiens (Human), UniProt P11712); assay: Cytochrome enzyme inhibition study, CYP2C9; type: in vitro ADME; conditions: human liver microsomes, mixed probe substrate; read-out: CYP inhibition (IC50, μM) 2C9
Sequence of CYP2C9 (P11712 whole entry): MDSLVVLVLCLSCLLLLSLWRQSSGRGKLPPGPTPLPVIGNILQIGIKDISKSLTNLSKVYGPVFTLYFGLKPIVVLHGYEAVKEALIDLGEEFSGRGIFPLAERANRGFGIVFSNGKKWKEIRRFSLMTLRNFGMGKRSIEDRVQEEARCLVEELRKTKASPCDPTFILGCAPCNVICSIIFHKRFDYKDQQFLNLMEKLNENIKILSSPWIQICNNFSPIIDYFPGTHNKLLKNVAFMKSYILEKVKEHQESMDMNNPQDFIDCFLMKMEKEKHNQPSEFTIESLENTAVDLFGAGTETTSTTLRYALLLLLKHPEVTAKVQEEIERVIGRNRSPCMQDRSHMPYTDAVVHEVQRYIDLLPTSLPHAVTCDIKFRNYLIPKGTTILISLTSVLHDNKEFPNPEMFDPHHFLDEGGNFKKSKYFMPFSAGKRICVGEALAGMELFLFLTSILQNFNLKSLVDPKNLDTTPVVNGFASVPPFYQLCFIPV
Method: as §1

[5] = molecular target: CYP2C19 (Homo sapiens (Human), UniProt P33261); assay: Cytochrome enzyme inhibition study, CYP2C19; type: in vitro ADME; conditions: human liver microsomes, mixed probe substrate; read-out: CYP inhibition (IC50, μM) 2C19
Sequence of CYP2C19 (P33261 whole entry): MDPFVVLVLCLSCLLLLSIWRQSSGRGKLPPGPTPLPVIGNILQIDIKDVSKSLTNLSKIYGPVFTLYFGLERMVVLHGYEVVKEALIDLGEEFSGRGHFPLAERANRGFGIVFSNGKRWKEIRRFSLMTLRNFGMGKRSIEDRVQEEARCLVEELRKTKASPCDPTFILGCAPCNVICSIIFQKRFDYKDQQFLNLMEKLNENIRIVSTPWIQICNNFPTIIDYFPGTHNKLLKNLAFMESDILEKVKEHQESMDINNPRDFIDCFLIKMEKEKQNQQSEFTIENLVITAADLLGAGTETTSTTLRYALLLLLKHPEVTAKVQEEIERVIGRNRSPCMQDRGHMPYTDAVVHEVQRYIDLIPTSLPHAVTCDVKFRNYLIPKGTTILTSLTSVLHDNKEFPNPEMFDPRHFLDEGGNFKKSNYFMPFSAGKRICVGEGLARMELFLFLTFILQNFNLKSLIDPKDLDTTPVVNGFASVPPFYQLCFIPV
Method: as §1

[6] = Pharmacokinetic study in mice; type: in vivo, male C57BL/6J mice; conditions: male, C57BL/6J, plasma, mouse
Excerpt: as §2, §3, §4, §5, §6

[7] = molecular target: CYP1A2 (Homo sapiens (Human), UniProt P05177); assay: Cytochrome enzyme inhibition study, CYP1A2; type: in vitro ADME; conditions: human liver microsomes, mixed probe substrate; read-out: CYP inhibition (IC50, μM) 1A2
Sequence of CYP1A2 (P05177 whole entry): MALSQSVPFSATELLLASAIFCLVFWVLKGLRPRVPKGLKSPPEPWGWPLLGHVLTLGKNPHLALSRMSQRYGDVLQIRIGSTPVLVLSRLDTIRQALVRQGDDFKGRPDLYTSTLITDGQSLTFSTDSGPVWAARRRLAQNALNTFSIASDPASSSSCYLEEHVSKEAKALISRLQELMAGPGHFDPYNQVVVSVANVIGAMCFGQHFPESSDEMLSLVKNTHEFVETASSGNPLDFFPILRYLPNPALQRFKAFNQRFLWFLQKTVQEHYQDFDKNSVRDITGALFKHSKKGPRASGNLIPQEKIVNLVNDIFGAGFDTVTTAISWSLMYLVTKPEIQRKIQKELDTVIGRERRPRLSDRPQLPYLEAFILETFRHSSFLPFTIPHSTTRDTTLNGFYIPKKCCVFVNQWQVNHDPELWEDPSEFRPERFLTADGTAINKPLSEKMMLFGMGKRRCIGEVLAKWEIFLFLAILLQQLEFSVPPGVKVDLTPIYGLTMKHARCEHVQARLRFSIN
Method: as §1

[8] = molecular target: CYP3A4 (Homo sapiens (Human), UniProt P08684); assay: Cytochrome enzyme inhibition study, CYP3A4; type: in vitro ADME; conditions: human liver microsomes, mixed probe substrate; read-out: CYP inhibition (IC50, μM) 3A4
Sequence of CYP3A4 (P08684 whole entry): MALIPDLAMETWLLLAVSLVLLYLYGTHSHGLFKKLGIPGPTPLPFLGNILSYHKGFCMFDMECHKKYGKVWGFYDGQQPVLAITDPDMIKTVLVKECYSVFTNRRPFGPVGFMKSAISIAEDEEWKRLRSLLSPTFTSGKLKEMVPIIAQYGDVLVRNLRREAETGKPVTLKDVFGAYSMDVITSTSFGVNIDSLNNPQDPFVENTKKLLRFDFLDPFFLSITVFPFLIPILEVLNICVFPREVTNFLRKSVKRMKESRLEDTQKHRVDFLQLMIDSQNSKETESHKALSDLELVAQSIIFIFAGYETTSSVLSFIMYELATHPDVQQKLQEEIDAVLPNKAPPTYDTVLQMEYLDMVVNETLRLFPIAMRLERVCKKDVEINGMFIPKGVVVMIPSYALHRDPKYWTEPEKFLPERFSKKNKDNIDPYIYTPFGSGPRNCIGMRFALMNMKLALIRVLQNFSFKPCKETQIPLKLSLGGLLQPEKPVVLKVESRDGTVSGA
Method: as §1

[9] = tested on: Ba/F3-TEL-CSF1R cell in situ graft tumor; assay: In vivo pharmacodynamic study, Ba/F3-TEL-CSF1R cell in situ graft tumor model (splenomegaly); parameters: species or system nu/nu mice; conditions: for efficacy in TEL-CSF1R-BaF3 cell splenomegaly assay: p.o., QD
Method: The in vivo efficacy of compound 1 hydrochloride on Ba/F3-TEL-CSF1R cell in situ graft tumor model was evaluated.
• Cell culture: Ba/F3-TEL-CSF1R cells were cultured in 1640 medium (Biological Industries)+10% fetal bovine serum (BI)+1% dual antibiotic solution (Penicilin Streptomycin Solution, Coring, USA) at 37° C. at 5% CO2 and passaged twice a week. When the saturation reached 80%-90% and met the requirement, the cells were collected, counted and grafted. • Animals: 28 nu/nu mice, female, aged 6-8 weeks, 18-22 g, supplied by Beijing Vital River Laboratory Animal Technology Co., Ltd. • Tumor grafting: 0.2 mL of Ba/F3-TEL-CSF1R cell suspension (2×10^6 cells) was grafted into each mouse through tail vein injection, and the mice were randomized by weight on day 10. • Grouping and dosing regimens
The animals were housed in SPF animal rooms in independent cages with air supply, and each cage contained no more than 5 animals. • ? Temperature: 20-26° C. • ? Humidity: 35%-75% • ? Illumination: 12 h/12 h light/darkness cycle • ? Corn core padding, changed once a week • ? […] Labeling: ear cutting. • Grouping: The subcutaneous tumor-bearing state was observed every day after grafting; the body weight and tumor volume were measured before grouping, and the mice were randomized according to the data. • Observation: The drafting and any modification of the protocol were approved by the Ethics
Committee of Laboratory Animal Welfare of Precision Preceding Do Co., Ltd. (Hefei, China). Animals were monitored daily for health and mortality, including, for example, tumor growth, mobility, diet, weight, eye, hair and other abnormal behaviors, appearance, signs or other abnormalities. The numbers of deaths and adverse events in the groups were recorded based on the number of animals. • Parameters: The body weights were measured and animal survival rate observed daily; at the end of the study (4 h after the last dose), the mice were euthanized and the spleen and liver were collected, weighed and photographed. • The results are shown in FIG. 1.

[10] = tested on: MDR1-MDCK; assay: Permeability study (MDR1-MDCK), bi-directional transport; type: in vitro ADME; conditions: conclusion in words

IC50 [1]: 10 nM
SMILES: CNC(=O)c1nccc2c(-c3cnc(Nc4ccc(OC)cc4)cc3C)c[nH]c12 [Compound 8 hydrochloride]

IC50 [1]: 30 nM
SMILES: CNC(=O)c1nccc2c(-c3cnc(Nc4ccc(C)nc4)cc3C)c[nH]c12 [Compound 6 hydrochloride]

IC50 [1]: 26 nM
SMILES: CNC(=O)c1nccc2c(-c3cnc(Nc4ccc(OC)nc4)cc3C)c[nH]c12 [Compound 7 hydrochloride]

IC50 [1]: 34 nM
SMILES: CNC(=O)c1nccc2c(-c3cnc(Nc4ccc(OC(C)C)cc4)cc3C)c[nH]c12 [Compound 3 hydrochloride]

IC50 [1]: 26.8 nM
SMILES: CNC(=O)c1nccc2c(-c3cnc(Nc4ccc(OC5CC5)nc4)cc3C)cn(C)c12 [Compound 2 hydrochloride]

IC50 [2]: > 50 µM | AUC(0-t) ([3]; 1 mg/kg, IV, 1 mpk): 66 µM·h | Vd ([3]; 1 mg/kg, IV, 1 mpk): 0.2 L/kg | clearance ([3]; 1 mg/kg, IV, 1 mpk): 0.61 mL/min/kg | half-life ([3]; 1 mg/kg, IV, 1 mpk): 3.4 h | AUC(0-t) ([3]; 3 mg/kg, PO, 3 mpk): 249 µM·h | Cmax ([3]; 3 mg/kg, PO, 3 mpk): 27.4 µM | Tmax ([3]; 3 mg/kg, PO, 3 mpk): 2 h | bioavailability ([3]; 3 mg/kg, PO, 3 mpk): 129% | IC50 [4]: 11.6 µM | IC50 [1]: 1.13 nM | IC50 [5]: 21 µM | AUC(0-t) ([6]; 1 mg/kg, IV, 1 mpk): 168 µM·h | Vd ([6]; 1 mg/kg, IV, 1 mpk): 0.15 L/kg | clearance ([6]; 1 mg/kg, IV, 1 mpk): 0.2 mL/min/kg | half-life ([6]; 1 mg/kg, IV, 1 mpk): 8.62 h | AUC(0-t) ([6]; 10 mg/kg, PO, 10 mpk): 1650 µM·h | Cmax ([6]; 10 mg/kg, PO, 10 mpk): 117 µM | Tmax ([6]; 10 mg/kg, PO, 10 mpk): 3 h | bioavailability ([6]; 10 mg/kg, PO, 10 mpk): 98% | IC50 [7]: > 50 µM | IC50 [8]: 28 µM | permeability compared with PLX-3397 [10]: higher than that of PLX-3397
SMILES: CNC(=O)c1nccc2c(-c3cnc(Nc4ccc(OC5CC5)nc4)cc3C)c[nH]c12 [Compound 1 hydrochloride]
efficacy in TEL-CSF1R-BaF3 cell splenomegaly assay ([9]; 1 mpk, comparable to PLX-3397 (10 mg/kg)): significant efficacy | efficacy in TEL-CSF1R-BaF3 cell splenomegaly assay ([9]; 10 mpk): significant advantage | dose-dependence in TEL-CSF1R-BaF3 cell splenomegaly assay ([9]; high, medium and low doses (10, 3, 1 mg/kg p.o. QD)): clear dose-dependence

IC50 [2]: 8.77 µM | AUC(0-t) ([3]; 1 mg/kg, IV, 1 mpk): 8.49 µM·h | Vd ([3]; 1 mg/kg, IV, 1 mpk): 0.613 L/kg | clearance ([3]; 1 mg/kg, IV, 1 mpk): 4.64 mL/min/kg | half-life ([3]; 1 mg/kg, IV, 1 mpk): 1.27 h | AUC(0-t) ([3]; 10 mg/kg, PO, 10 mpk): 70.2 µM·h | Cmax ([3]; 10 mg/kg, PO, 10 mpk): 10.7 µM | Tmax ([3]; 10 mg/kg, PO, 10 mpk): 1.5 h | bioavailability ([3]; 10 mg/kg, PO, 10 mpk): 81% | IC50 [4]: 3.81 µM | IC50 [5]: 8.32 µM | AUC(0-t) ([6]; 1 mg/kg, IV, 1 mpk): 29 µM·h | Vd ([6]; 1 mg/kg, IV, 1 mpk): 0.265 L/kg | clearance ([6]; 1 mg/kg, IV, 1 mpk): 0.927 mL/min/kg | half-life ([6]; 1 mg/kg, IV, 1 mpk): 3.33 h | AUC(0-t) ([6]; 10 mg/kg, PO, 10 mpk): 131 µM·h | Cmax ([6]; 10 mg/kg, PO, 10 mpk): 17.2 µM | Tmax ([6]; 10 mg/kg, PO, 10 mpk): 4 h | bioavailability ([6]; 10 mg/kg, PO, 10 mpk): 74.1% | IC50 [7]: 24 µM | IC50 [8]: > 35.6 µM
SMILES: Cl.FC(F)(F)c1ccc(CNc2ccc(Cc3c[nH]c4ncc(Cl)cc34)cn2)cn1 [PLX-3397, Pexidartinib, reference compound]
